In ChEMBL document CHEMBL1287699, “N,N-Bis-(8-hydroxyquinoline-5-yl methyl)-benzyl substituted amines (HQNBA): peroxisome proliferator-activated receptor (PPAR-γ) agonists with neuroprotective properties” (Bioorg Med Chem Lett, 2010):
Activity calls are given as the source filed them. No cut-off for these calls is given here.

Key:
[1] = tested on: HT-22; assay: Neuroprotective activity in mouse HT22 cells assessed as protection against glutamate-induced toxicity at 1 uM after 24 hrs by MTT assay in presence of GW-9662; format: functional, cell-based
[2] = tested on: HT-22; assay: Inhibition of glutamate-induced decrease in GSH level in mouse HT22 cells at 1 uM after 24 hrs; format: functional, cell-based
[3] = tested on: HT-22; assay: Neuroprotective activity in mouse HT22 cells assessed as protection against glutamate-induced toxicity after 24 hrs by MTT assay; format: functional, cell-based; conditions: HT-22, 24 h
[4] = Cytotoxicity against mouse hippocampal HT22 cells at 1 uM after 24 hrs by MTT assay; format: cell-based, Hippocampus; conditions: ht-22, 24 h
[5] = tested on: HT-22; assay: Neuroprotective activity in mouse HT22 cells assessed as protection against glutamate-induced toxicity at 0.5 to 1 uM after 24 hrs by MTT assay relative to control; format: functional

| SMILES | Activity [1] | Activity [2] | EC50 [3] | Activity [4] | %max [5] |
| --- | --- | --- | --- | --- | --- |
| COc1cc(/C=C/c2cc(/C=C/c3ccc(O)c(OC)c3)n(-c3ccccc3)n2)ccc1O | Active |  |  |  |  |
| Oc1ccc(CN(Cc2ccc(C(F)(F)F)cc2)Cc2ccc(O)c3ncccc23)c2cccnc12 | inactive | Active | 621 nM | 33.7% | 100% |
| Cc1ccc(CN(Cc2ccc(O)c3ncccc23)Cc2ccc(O)c3ncccc23)cc1 | inactive | Active | 125 nM | 39.4% | 100% |
| Cc1c(C)c2c(c(C)c1O)CCC(C)(COc1ccc(CC3SC(=O)NC3=O)cc1)O2 (stereo not drawn) |  | inactive |  |  |  |
| Oc1ccc(CN(Cc2cccc(C(F)(F)F)c2)Cc2ccc(O)c3ncccc23)c2cccnc12 | inactive | Active | 168 nM | 40.7% | 99% |
| Oc1ccc(CN(Cc2cccs2)Cc2ccc(O)c3ncccc23)c2cccnc12 | inactive | Active | 383 nM | 34% | 97% |
| O=C(Nc1ccccc1)c1cc([N+](=O)[O-])ccc1Cl | inactive |  |  |  |  |
